According to article PMC4864078, “De Novo Transcriptome Analysis and Detection of Antimicrobial Peptides of the American Cockroach Periplaneta americana (Linnaeus)” (PLoS ONE, 2016):
Entries after “also recorded” stand apart in the source; their conditions may differ.

Assays:
[1] = tested on: E. coli (ATCC 11775); assay: Broth microdilution assay (MIC); format: cell-based, Escherichia coli; settings: Mueller-Hinton Broth, 2 × 10^4 CFU/mL, 18 h at 37°C, visible turbidity, complete growth inhibition
Procedure: (§1) The bacterial strains E. coli (KACC 13821, ATCC 11775) and Staphylococcus aureus (KACC 10768, ATCC 25923), and the yeast strain Candida albicans (KCTC 7121, ATCC 14053) were purchased from the Korean Agricultural Culture Collection (KACC) and Korean Collection for Type Cultures (KCTC). Both bacteria and the yeast were cultivated overnight in tryptic soy broth (TSB; Difco, USA) at 200 rpm in a 37°C shaking incubator to the stationary phase. Bacteria were cultivated for 3 h in fresh TSB medium under the same condition to the log phase. The strains were stored with 15% glycerol at −70°C until use.
(§2) In addition, antimicrobial activities of the peptides were also tested by broth microdilution assays against E. coli, S. aureus, and C. albicans. Briefly, microbes were grown overnight in Mueller-Hinton Broth (MHB) to the onset of the stationary phase with shaking at 200 rpm. The cultures were diluted in fresh MHB to a final concentration of 2 × 10^4 CFU/mL. A stock solution of each peptide was prepared to a concentration of 640 μg/mL in 0.01% acetic acid, and was then serially diluted two-fold to reach a concentration of 10 μg/mL. After 90-μL aliquots of the microbial suspension were dispensed into each well of a 96-well polypropylene microtiter plate, 10 μL of the peptide solution was added. The antimicrobial activities of the peptides were assessed by measuring the visible turbidity in each well of the plate after 18 h of incubation at 37°C. Minimum inhibitory concentrations (MICs) are expressed as a specific value that caused complete growth inhibition.

[2] = tested on: S. aureus (ATCC 25923); assay: Broth microdilution assay (MIC); format: cell-based, Staphylococcus aureus; settings: Mueller-Hinton Broth, 2 × 10^4 CFU/mL, 18 h at 37°C, visible turbidity, complete growth inhibition
Procedure: as §1, §2

[3] = tested on: C. albicans (ATCC 14053); format: cell-based, Candida albicans; settings: Mueller-Hinton Broth, 2 × 10^4 CFU/mL, 18 h at 37°C, visible turbidity, complete growth inhibition
Procedure: as §1, §2

[4] = tested on: S. aureus; assay: Radial diffusion assay; format: cell-based, Staphylococcus aureus; settings: diameter of growth inhibition zone after 12 h; compared with melittin; repeated three times
Procedure: as §1
(§3) The radial diffusion assay was performed to test the antimicrobial activities of peptides, as described previously with slight modifications. In brief, bacteria and yeast strains were grown to the mid-logarithmic phase in TSB at 37°C and then washed twice with 10 mM Tris-HCl (containing 5 mM glucose, pH 7.4). A total of 4 × 10^6 CFU was added to 10 mL of an underlay agarose gel [0.03% (w/v) TSB, 1% (w/v) agarose (Sigma, USA), and 0.02% (v/v) Tween 20 (Sigma, USA) in 10 mM Tris-HCl]. The underlay gel was poured into a 100-mm INTEGRID^TM Petri dish. After agarose solidification, 3-mm-diameter wells were punched and 5 μL of each peptide solution was added to each well. Buffer alone was used as a negative control. Plates were incubated at 37°C for 3 h to allow for diffusion of the peptides. The underlay gel was then covered with 10 mL of nutrient-rich agar overlay (6% TSB and 1% agarose in 10 mM Tris-HCl). […] This experiment was repeated at least 3 times and the same results were obtained.

[5] = tested on: C. albicans; assay: Radial diffusion assay; format: cell-based, Candida albicans; settings: diameter of growth inhibition zone after 12 h, repeated three times
Procedure: as §1, §3

[6] = tested on: Gram-negative bacteria, Gram-positive bacteria, and yeast; assay: Radial diffusion assay, statement over all three microbes; format: cell-based; settings: increased in a dose-dependent manner, cleared zone after 12 h at 37°C
Procedure: as §1, §3

[7] = tested on: rat erythrocytes; assay: Hemolytic assay; format: cell-based; settings: 100 μg/mL, compared to melittin, 30 min at 37°C, A540
Procedure: This experiment was approved by the Institutional Animal Care and Use Committee (IACUC) of the National Academy of Agricultural Sciences (approval number: NAAS-1114). The hemolytic activity of the peptides was determined by monitoring the release of hemoglobin from rat erythrocytes at 540 nm. For the hemolytic assay, 20 μL of each peptide solution at a predetermined concentration was added to 180 μL of a 2.5% (v/v) suspension of rat erythrocytes in phosphate-buffered saline (PBS). Melittin (Sigma, USA), a hemolytic and α-helical peptide isolated from bee venom, was used as the positive control. This mixture was incubated for 30 min at 37°C, and 600 μL of PBS was then added to each tube. After 3 min of centrifugation at 10,000 ×g, the supernatant was […], and the absorbance was measured at 540 nm. Evaluations were made from the results of at least three independent experiments, each carried out in triplicate.

[8] = tested on: E. coli; assay: Radial diffusion assay; format: cell-based, Escherichia coli; settings: diameter of growth inhibition zone after 12 h; compared with melittin; repeated three times
Procedure: as §1, §3

| Sequence | Minimum Inhibitory Concentration (MIC) [1] [µg/mL] | Minimum Inhibitory Concentration (MIC) [2] [µg/mL] | Minimum Inhibitory Concentration (MIC) [3] [µg/mL] | Antimicrobial activity in S. aureus (radial diffusion assay) [4] | Antimicrobial activity against C. albicans (radial diffusion assay) [5] | Antimicrobial activity in radial diffusion assay [6] | Hemolytic activity [7] | Antimicrobial activity in E. coli (radial diffusion assay) [8] | Antimicrobial activity against C. albicans (radial diffusion assay) ([5]; listed as Contig15_1337–1) |
| --- | --- | --- | --- | --- | --- | --- | --- | --- | --- |
| MKTFLRLYRSLINKVLHV [ISGCock_Contig05_0593, synthetic peptide, AMPA stretch of a predicted novel AMP from a P. americana transcript] | 4 | 16 | 4 | greater than that of melittin; also recorded: highest antibacterial effect | strong antimicrobial activity | antimicrobial activity | – | – | – |
| RKKVWFIFHVCPKLKQRILSDTHAKNKCRLSPLLIKSTKIKNET [ISGCock_Contig16_4974, synthetic peptide, AMPA stretch of a predicted novel AMP from a P. americana transcript] | 16 | 16 | 16 | – | – | antimicrobial activity | – | – | – |
| CNYISFFRKCKNSQSTMYGCHRMNKCVFSSY [ISGCock_Contig07_3736–1, synthetic peptide, first AMPA stretch of a predicted novel AMP from a P. americana transcript] | >64 | >64 | >64 | – | – | antimicrobial activity | – | – | – |
| ISHNHLTAASITHVKNRGKYIYMHLKFRKTNVLI [ISGCock_Contig16_2060, synthetic peptide, AMPA stretch of a predicted novel AMP from a P. americana transcript] | 16 | 16 | 16 | – | – | antimicrobial activity | – | – | – |
| VVGRKHSILNCIPYLKKKKIMRLVESESIG [ISGCock_Contig12_4176, synthetic peptide, AMPA stretch of a predicted novel AMP from a P. americana transcript] | 8 | >64 | 8 | greater than that of melittin | strong antimicrobial activity | antimicrobial activity | relatively low compared to that of melittin | – | – |
| HLYPCKLNLKLGKVPFHFLNLNHKGKSIMVNQQTCLYYIICQTR [ISGCock_Contig13_4610–1, synthetic peptide, first AMPA stretch of a predicted novel AMP from a P. americana transcript] | 64 | >64 | >64 | greater than that of melittin | strong antimicrobial activity | antimicrobial activity | relatively low compared to that of melittin | stronger antimicrobial activity than melittin | – |
| LMLCKGFLRHSYKSIHERGTKRGKLCRISRLALSSLP [ISGCock_Contig10_4736–2, synthetic peptide, second AMPA stretch of a predicted novel AMP from a P. americana transcript] | 16 | >64 | 32 | greater than that of melittin | strong antimicrobial activity | antimicrobial activity | – | – | – |
| KRMKLNAKKLSFCDHLNSYLNLSPTLFIHNSSKQWSHWLWHNGIRI [ISGCock_Contig15_1337–1, synthetic peptide, first AMPA stretch of a predicted novel AMP from a P. americana transcript] | >64 | >64 | 16 | greater than that of melittin | strong antimicrobial activity | antimicrobial activity | relatively low compared to that of melittin | – | highest antifungal activity of the tested peptides |
| ANLLRHKVYGYCVLGPKGSSLGGIHGTWHDHHCSLIQRNPSTSTKGN [ISGCock_Contig13_3006, synthetic peptide, AMPA stretch of a predicted novel AMP from a P. americana transcript] | 64 | >64 | 64 | – | – | antimicrobial activity | – | – | – |
| ALQICTRNMIDDRLPYVADNVRPGTFIKQQRKQKQQRHHTSGTRKRMAKG [ISGCock_Contig04_0915, synthetic peptide, AMPA stretch of a predicted novel AMP from a P. americana transcript] | 64 | >64 | >64 | – | strong antimicrobial activity | antimicrobial activity | – | stronger antimicrobial activity than melittin | – |
